# Test results reported in patent US10279023B2, “Mucin-associated surface protein as a vaccine against chagas disease” (BOARD OF REGENTS, THE UNIVERSITY OF TEXAS SYSTEM, priority 2013, dated 2019).
# Experiments:
# [1] = system: T. cruzi Y strain trypomastigotes; assay: Challenge - parasitemia and survival of immunized mice; format: in vivo, Trypanosoma cruzi; settings: without the aid of any additional adjuvants
# Procedure: (§1) C3H/HeNsd female mice (6-8 weeks old) were separated in five groups (4 mice/group). The immunizations were performed via intraperitoneal (i.p.) injection. One control group was immunized with phosphate buffer saline (PBS, placebo). Two control groups for the adjuvants were given 0.9% aluminum hydroxide (AIOH) and KLH at 10 μg/mouse. Two experimental groups were administered 20 μg/mouse of MASPsyn alone and combined with 0.9% aluminum hydroxide, respectively. A total of 3 immunizations every 10-15 days were administered.
# Ten days after last immunization mice were inoculated via intraperitoneal injection with 1×10^5 trypomastigote Y strain, the parasitemia and survival were monitored. The parastemia were evaluated every day for the first 12 days then every third day for a total of 21 days. FIG. 1 illustrates the resulting parasitemia and survival for each of the control and experimental groups.
# C3H/HeNsd female mice = assay: Evaluation of the humoral immune response (serum antibody titers by ELISA after immunization); format: in vivo; settings: immunized mice, without the aid of any additional adjuvants
# Procedure: as §1
# Ten days after the last immunization blood was collected by tail bleeding and serum was separated from blood by centrifugation at 2,000 rpm for 10 min. The serum antibody titers were determined by an ELISA. Human Chagasic and normal serum were also tested for antibody titers against MASPsyn.
# [2] = system: IL-4, IL-10, IL-12, IL-17A, and IFN-gamma; assay: Evaluation of cytokines (Mouse Inflammatory Cytokines Multi-analyte ELISArray) in immunized, challenged mice; format: in vivo; settings: without the aid of any additional adjuvants
# Procedure: as §1
# Four weeks post-infection, the blood was collected by tail-bleeding and a pool of serum from each experimental group was obtained as described above. Cytokines were measured using Mouse Inflammatory Cytokines Multi-analyte ELISArray Kit. FIG. 2 illustrates cytokine profiles of immunized mice following parasite challenge. Anti-inflammatory (IL-4 and IL-10) and proinflammatory (IFN-γ, IL-12, and IL-17) cytokines were assayed in triplicate by ELISA four weeks after the last immunization and approximately two weeks after the challenge. Each bar represents the mean value±SEM (n=4 animals per group) for each treatment.
sequence,measurement,setting,value
DAENPGGEVFNDNKKGLSRV (listed as Trypanosoma cruzi) [MASPsyn],survivability of immunized-infected mice,[1],increase survivability
same,antibody production,C3H/HeNsd female mice,able to stimulate
same,"cytokine (e.g., IL-4, IL-10, IL-12, IL-17A, and IFN-gamma) production",[2],able to stimulate
